The term melting point denotes the temperature of the solid-liquid transition.

The results in this text go back to patent US20090082423A1, “SOLUBLE EPOXIDE HYDROLASE INHIBITORS” (Arete Therapeutics, Inc., priority 2007, published 2009).

Molecules are shown by their SMILES.

Data set [1] has as its system soluble epoxide hydrolase (sEH). The experiment in a line: Fluorescent assay for mouse and human soluble epoxide hydrolase (CMNPC substrate). Conditions: Conc 200 nM; recombinant sEH, CMNPC 5 μM, 30° C.; mouse or human enzyme not stated. In kind it is biochemical. From the text: Fluorescent Assay for Mouse and Human Soluble Epoxide Hydrolase
Recombinant mouse sEH (MsEH) and human sEH (HsEH) were produced in a baculovirus expression system as previously reported. Grant et al., J. Biol. Chem., 268:17628-17633 (1993); Beetham et al., Arch. Biochem. Biophys., 305:197-201 (1993). The expressed proteins were purified from cell lysate by affinity chromatography. Wixtrom et al., Anal. Biochem., 169:71-80 (1988). Protein concentration was quantified using the Pierce BCA assay using bovine serum albumin as the calibrating standard. The preparations were at least 97% pure as judged by SDS-PAGE and scanning densitometry. They contained no detectable esterase or glutathione transferase activity which can interfere with the assay. The assay was also evaluated with similar results in crude cell lysates or homogenate of tissues.
The IC50s for each inhibitor were according to the following procedure:
Cyano(2-methoxynaphthalen-6-yl)methyl (3-phenyloxiran-2-yl)methyl carbonate (CMNPC; Jones P. D. et. al.; Analytical Biochemistry 2005; 343: pp. 66-75)
Bis/Tris HCl 25 mM pH 7.0 containing 0.1 mg/mL of BSA (buffer A)
CMNPC at 0.25 mM in DMSO.
Mother solution of enzyme in buffer A (Mouse sEH at 6 μg/mL and Human sEH at 5 μg/mL).
Inhibitor dissolved in DMSO at the appropriate concentration.
In a black 96 well plate, fill all the wells with 150 μL of buffer A.
Add 2 μL of DMSO in well A2 and A3, and then add 2 μL of inhibitor solution in A1 and A4 through A12.
Add 150 μL of buffer A in row A, then mix several time and transfer 150 μL to row B. Repeat this operation up to row H. The 150 μL removed from row H go to the trash.
Add 20 μL of buffer A in column 1 and 2, then add 20 μL of enzyme solution to column 3 to 12.
Incubate the plate for 5 minutes in the plate reader at 30° C.
During incubation prepare the working solution of substrate by mixing 3.68 mL of buffer A (4×0.920 mL) with 266 μL (2×133 μL) of substrate solution).
At t=0, add 30 μL of working substrate solution with multi-channel pipette labeled “Briggs 303” and start the reading ([S]final: 5 μM).
Read with ex: 330 nm (20 nm) and em: 465 nm (20 nm) every 30 second for 10 minutes. The velocities are used to analyze and calculate the IC50s.

`O=C(NCC1CCOCC1)NC12CC3CC(CC(C3)C1)C2` [Compound 1, 1-adamantan-1-yl-3-((tetrahydro-2H-pyran-4-yl)methyl)urea] gave a melting point of 196 to 198 °C. Moreover, the “% Inh (percent inhibition)” value in data set [1] was determined as 89%.
Take `O=C(NCC1CCOCC1)Nc1ccc(C(F)(F)F)cc1` [Compound 2, 1-((tetrahydro-2H-pyran-4-yl)methyl)-3-(4-(trifluoromethyl)phenyl)urea]: the melting point lay within 148 to 149 °C. Also, the “% Inh (percent inhibition)” value in data set [1] was found to be 70%.
The matching figures for `O=C(Nc1ccc(C(F)(F)F)cc1)NC1CCOCC1` [Compound 3, 1-(tetrahydro-2H-pyran-4-yl)-3-(4-(trifluoromethyl)phenyl)urea]: 196 to 198 °C and 91%.
As for `O=C(Nc1ccc(C(F)(F)F)cc1)NC1CCS(=O)(=O)CC1` [Compound 4, 1-(1,1-dioxo-tetrahydro-2H-thiopyran-4-yl)-3-(4-(trifluoromethyl)phenyl)urea], the melting point was 196 to 198 °C. Moreover, the “% Inh (percent inhibition)” value in data set [1] is on record as 92%.
The compound `CC1(C)CC(NC(=O)Nc2ccc(C(F)(F)F)cc2)CC(C)(C)C1=O` [Compound 5, 1-(3,3,5,5-tetramethyl-4-oxocyclohexyl)-3-(4-(trifluoromethyl)phenyl)urea] showed a melting point of 152 to 153 °C. Further, the “% Inh (percent inhibition)” value in data set [1] was 98%.
`CC1(C)CC(NC(=O)NC23CC4CC(CC(C4)C2)C3)CC(C)(C)C1=O` [Compound 6, 1-adamantan-1-yl-3-(3,3,5,5-tetramethyl-4-oxocyclohexyl)urea] returned a melting point of 234 to 238 °C. For the same compound, the “% Inh (percent inhibition)” value in data set [1] is 100%.
`O=C(NC1CCS(=O)(=O)CC1)NC12CC3CC(CC(C3)C1)C2` [Compound 7, 1-adamantan-1-yl-3-(1,1-dioxo-tetrahydro-2H-thiopyran-4-yl)urea]: the melting point fell in the range of 244 to 246 °C. In data set [1], the “% Inh (percent inhibition)” value is 82%.
The matching figures for `O=C(NC1CCOCC1)NC12CC3CC(CC(C3)C1)C2` [Compound 8, 1-adamantan-1-yl-3-(tetrahydro-2H-pyran-4-yl)urea]: 239 to 242 °C and 90%.
